In PubChem BioAssay AID248 (DTP/NCI, 2004):
Several values for one entry are separate records, joined by “and”; a condition that tells them apart may be missing. Identical values can stand only once. Toxic doses and inconclusive results are not listed.

System: L1210 leukemia ip in BDF1 mice, survival T/C
Test: NCI In Vivo Anticancer Drug Screen. Data for tumor model L1210 Leukemia (intraperitoneal) in B6D2F1 (BDF1) mice
Settings: endpoint: mean survival time, higher = longer survival
Method in brief: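 Value reflects the ratio of survival in compound-treated mice to survival in vehicle-treated controls, with both groups carrying the same transplanted tumor.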

[1] = dose: 100.0 mg/kg/injection, schedule: Q01DX009 (ip), vehicle: saline with Tween-80
[2] = dose: 100.0 mg/kg/injection, schedule: Q04DX003 (ip), vehicle: saline with Tween-80
[3] = dose: 200.0 mg/kg/injection, schedule: Q01DX009 (ip), vehicle: saline with Tween-80
[4] = dose: 200.0 mg/kg/injection, schedule: Q04DX003 (ip), vehicle: saline with Tween-80
[5] = dose: 400.0 mg/kg/injection, schedule: Q01DX009 (ip), vehicle: saline with Tween-80
[6] = dose: 400.0 mg/kg/injection, schedule: Q04DX003 (ip), vehicle: saline with Tween-80
[7] = dose: 100.0 mg/kg/injection, schedule: Q01DX001 (ip), vehicle: carboxymethylcellulose (CMC)
[8] = dose: 200.0 mg/kg/injection, schedule: Q01DX001 (ip), vehicle: carboxymethylcellulose (CMC)
[9] = dose: 400.0 mg/kg/injection, schedule: Q01DX001 (ip), vehicle: carboxymethylcellulose (CMC)
[10] = dose: 50.0 mg/kg/injection, schedule: Q01DX009 (ip), vehicle: saline
[11] = dose: 100.0 mg/kg/injection, schedule: Q01DX001 (ip), vehicle: saline
[12] = dose: 100.0 mg/kg/injection, schedule: Q01DX009 (ip), vehicle: saline
[13] = dose: 200.0 mg/kg/injection, schedule: Q01DX001 (ip), vehicle: saline
[14] = dose: 200.0 mg/kg/injection, schedule: Q01DX009 (ip), vehicle: saline
[15] = dose: 100.0 mg/kg/injection, schedule: Q01DX009 (ip), vehicle: Klucel (hydroxypropylcellulose) (HPC)

O=C1CCCN(Cc2ccccc2)C(=O)N1
T/C [1]: 97 % of control
T/C [2]: 103 % of control
T/C [3]: 97 % of control
T/C [4]: 103 % of control
T/C [5]: 97 % of control
T/C [6]: 103 % of control

SCc1ccc(Br)cc1
T/C [7]: 104 % of control
T/C [8]: 98 % of control
T/C [9]: 104 % of control

CCOC(=O)Cc1c(C(=O)OCC)[nH]c(C)c1C(C)=O
T/C (dose: 100.0 mg/kg/injection, schedule: Q01DX001 (ip), vehicle: Klucel (hydroxypropylcellulose) (HPC)): 104 % of control
T/C (dose: 200.0 mg/kg/injection, schedule: Q01DX001 (ip), vehicle: Klucel (hydroxypropylcellulose) (HPC)): 95 % of control
T/C (dose: 400.0 mg/kg/injection, schedule: Q01DX001 (ip), vehicle: Klucel (hydroxypropylcellulose) (HPC)): 95 % of control

ClCc1csc(-c2ccccc2)n1
T/C [1]: 115 % of control
T/C [3]: 94 % of control
T/C [5]: 92 % of control

Cc1ccc2ncccc2c1N (tested in a mixture with another compound)
T/C (dose: 100.0 mg/kg/injection, schedule: Q04DX003 (ip), vehicle: gum acacia): 93 % of control
T/C (dose: 200.0 mg/kg/injection, schedule: Q04DX003 (ip), vehicle: gum acacia): 98 % of control
T/C (dose: 400.0 mg/kg/injection, schedule: Q04DX003 (ip), vehicle: gum acacia): 94 % of control

O=C1NC(=O)C(=O)C(=O)N1
T/C [10]: 94 % of control
T/C (dose: 50.0 mg/kg/injection, schedule: Q04DX003 (ip), vehicle: saline): 93 % of control
T/C [11]: 94 % of control
T/C [12]: 97 % of control
T/C (dose: 100.0 mg/kg/injection, schedule: Q04DX003 (ip), vehicle: saline): 97 % of control
T/C [13]: 108 % of control
T/C [14]: 103 % of control
T/C (dose: 200.0 mg/kg/injection, schedule: Q04DX003 (ip), vehicle: saline): 97 % of control

COc1cc(C=Nc2ccc3ccccc3c2)ccc1N(CCCl)CCCl
T/C (dose: 0.9 mg/kg/injection, schedule: Q01DX009 (ip), vehicle: carboxymethylcellulose (CMC)): 102 % of control
T/C (dose: 1.3 mg/kg/injection, schedule: Q01DX009 (ip), vehicle: carboxymethylcellulose (CMC)): 118 % of control
T/C (dose: 1.5 mg/kg/injection, schedule: Q01DX009 (ip), vehicle: carboxymethylcellulose (CMC)): 108 % of control
T/C (dose: 3.0 mg/kg/injection, schedule: Q01DX009 (ip), vehicle: carboxymethylcellulose (CMC)): 114 % of control and 117 % of control
T/C (dose: 6.0 mg/kg/injection, schedule: Q01DX009 (ip), vehicle: carboxymethylcellulose (CMC)): 122 % of control
T/C (dose: 20.0 mg/kg/injection, schedule: Q01DX009 (ip), vehicle: carboxymethylcellulose (CMC)): 119 % of control
T/C (dose: 30.0 mg/kg/injection, schedule: Q01DX009 (ip), vehicle: carboxymethylcellulose (CMC)): 100 % of control
T/C (dose: 40.0 mg/kg/injection, schedule: Q01DX001 (ip), vehicle: carboxymethylcellulose (CMC)): 151 % of control
T/C (dose: 75.0 mg/kg/injection, schedule: Q01DX001 (ip), vehicle: carboxymethylcellulose (CMC)): 119 % of control

CC(=O)CC(=O)Nc1ccc(C(=O)c2ccccc2)cc1
T/C (dose: 37.5 mg/kg/injection, schedule: Q01DX009 (ip), vehicle: saline): 98 % of control
T/C (dose: 75.0 mg/kg/injection, schedule: Q01DX001 (ip), vehicle: acetone): 87 % of control
T/C (dose: 75.0 mg/kg/injection, schedule: Q01DX001 (ip), vehicle: saline): 95 % of control
T/C (dose: 75.0 mg/kg/injection, schedule: Q01DX009 (ip), vehicle: saline): 93 % of control
T/C (dose: 150.0 mg/kg/injection, schedule: Q01DX001 (ip), vehicle: saline): 98 % of control
T/C (dose: 150.0 mg/kg/injection, schedule: Q01DX009 (ip), vehicle: saline): 107 % of control
T/C (dose: 300.0 mg/kg/injection, schedule: Q01DX001 (ip), vehicle: acetone): 98 % of control
T/C (dose: 300.0 mg/kg/injection, schedule: Q01DX001 (ip), vehicle: saline): 90 % of control

CNC(=O)N(C)C1C(OC)OC2COC(c3ccccc3)OC2C1O (stereo not drawn)
T/C (dose: 25.0 mg/kg/injection, schedule: Q01DX009 (ip), vehicle: saline): 100 % of control
T/C [10]: 105 % of control
T/C [12]: 100 % of control
T/C [14]: 100 % of control

Cc1ccc2c(c1)C(=NCCCN=C1C(=O)Nc3ccc(C)cc31)C(=O)N2
T/C [1]: 96 % of control
T/C [2]: 93 % of control
T/C [3]: 91 % of control
T/C [4]: 102 % of control
T/C [5]: 98 % of control
T/C [6]: 98 % of control

NC(=NCc1ccccc1)C(F)(F)C(F)(F)F
T/C (dose: 44.0 mg/kg/injection, schedule: Q01DX Z (ip), vehicle: other): 103 % of control and 118 % of control
T/C (dose: 66.0 mg/kg/injection, schedule: Q01DX Z (ip), vehicle: other): 100 % of control and 101 % of control
T/C (dose: 100.0 mg/kg/injection, schedule: Q01DX Z (ip), vehicle: other): 103 % of control and 90 % of control
T/C (dose: 150.0 mg/kg/injection, schedule: Q01DX Z (ip), vehicle: other): 92 % of control and 90 % of control

CN(C)c1nc2nc[nH]c2c(=S)n1C
T/C [11]: 97 % of control
T/C [13]: 97 % of control
T/C (dose: 400.0 mg/kg/injection, schedule: Q01DX001 (ip), vehicle: saline): 95 % of control

CC(C)NC(=O)Nc1cccc(O)c1
T/C [2]: 96 % of control
T/C [4]: 89 % of control
T/C [6]: 89 % of control

Nc1nc(N)c2c(Cl)c(CNc3ccc(C(=O)NC(CCCC(=O)O)C(=O)O)cc3)ccc2n1 (stereo not drawn)
T/C (dose: 1.0 mg/kg/injection, schedule: Q01DX009 (ip), vehicle: saline): 170 % of control
T/C (dose: 2.0 mg/kg/injection, schedule: Q01DX009 (ip), vehicle: saline): 150 % of control and 152 % of control
T/C (dose: 4.0 mg/kg/injection, schedule: Q01DX009 (ip), vehicle: saline): 178 % of control and 206 % of control

O/N=C1\c2ccccc2-c2ccc(Br)cc21
T/C [7]: 97 % of control
T/C [8]: 117 % of control
T/C [9]: 103 % of control

COc1cccc(N=Cc2ccc(C=Nc3cccc(OC)c3)cc2)c1
T/C [15]: 89 % of control
T/C (dose: 200.0 mg/kg/injection, schedule: Q01DX009 (ip), vehicle: Klucel (hydroxypropylcellulose) (HPC)): 94 % of control
T/C (dose: 400.0 mg/kg/injection, schedule: Q01DX009 (ip), vehicle: Klucel (hydroxypropylcellulose) (HPC)): 88 % of control

O=C1C(c2ccccc2)=C(c2ccccc2)c2c1c(-c1ccccc1)c(-c1ccccc1)c(-c1ccccc1)c2-c1ccccc1
T/C (dose: 6.25 mg/kg/injection, schedule: Q01DX001 (ip), vehicle: saline with Tween-80): 98 % of control
T/C (dose: 12.5 mg/kg/injection, schedule: Q01DX001 (ip), vehicle: saline with Tween-80): 98 % of control
T/C (dose: 25.0 mg/kg/injection, schedule: Q01DX001 (ip), vehicle: saline with Tween-80): 89 % of control and 91 % of control
T/C (dose: 200.0 mg/kg/injection, schedule: Q01DX001 (ip), vehicle: saline with Tween-80): 90 % of control
T/C (dose: 400.0 mg/kg/injection, schedule: Q01DX001 (ip), vehicle: saline with Tween-80): 87 % of control

Cc1ccc(SC2CC3CC2C2COCC32)cc1 (stereo not drawn)
T/C (dose: 50.0 mg/kg/injection, schedule: Q01DX009 (ip), vehicle: Klucel (hydroxypropylcellulose) (HPC)): 98 % of control
T/C [15]: 98 % of control
T/C (dose: 100.0 mg/kg/injection, schedule: Q04DX003 (ip), vehicle: Klucel (hydroxypropylcellulose) (HPC)): 90 % of control
T/C (dose: 200.0 mg/kg/injection, schedule: Q04DX003 (ip), vehicle: Klucel (hydroxypropylcellulose) (HPC)): 98 % of control

O=C1C=CC(=O)N1
T/C (dose: 0.62 mg/kg/injection, schedule: Q01DX009 (ip), vehicle: saline): 90 % of control
T/C (dose: 1.25 mg/kg/injection, schedule: Q01DX009 (ip), vehicle: saline): 93 % of control
T/C (dose: 1.25 mg/kg/injection, schedule: Q04DX003 (ip), vehicle: saline): 92 % of control
T/C (dose: 2.5 mg/kg/injection, schedule: Q01DX009 (ip), vehicle: saline): 90 % of control
T/C (dose: 2.5 mg/kg/injection, schedule: Q04DX003 (ip), vehicle: saline): 96 % of control
T/C (dose: 3.74 mg/kg/injection, schedule: Q01DX009 (ip), vehicle: saline with Tween-80): 96 % of control
T/C (dose: 5.0 mg/kg/injection, schedule: Q01DX001 (ip), vehicle: acetone): 95 % of control
